Columns and labels:
Conditions in all cases: Compound concentration 10.0 uM
[1] = molecular target: T1, Tyrosine-protein kinase JAK3 (Homo sapiens) (UniProt P52333)
T1 sequence (whole entry): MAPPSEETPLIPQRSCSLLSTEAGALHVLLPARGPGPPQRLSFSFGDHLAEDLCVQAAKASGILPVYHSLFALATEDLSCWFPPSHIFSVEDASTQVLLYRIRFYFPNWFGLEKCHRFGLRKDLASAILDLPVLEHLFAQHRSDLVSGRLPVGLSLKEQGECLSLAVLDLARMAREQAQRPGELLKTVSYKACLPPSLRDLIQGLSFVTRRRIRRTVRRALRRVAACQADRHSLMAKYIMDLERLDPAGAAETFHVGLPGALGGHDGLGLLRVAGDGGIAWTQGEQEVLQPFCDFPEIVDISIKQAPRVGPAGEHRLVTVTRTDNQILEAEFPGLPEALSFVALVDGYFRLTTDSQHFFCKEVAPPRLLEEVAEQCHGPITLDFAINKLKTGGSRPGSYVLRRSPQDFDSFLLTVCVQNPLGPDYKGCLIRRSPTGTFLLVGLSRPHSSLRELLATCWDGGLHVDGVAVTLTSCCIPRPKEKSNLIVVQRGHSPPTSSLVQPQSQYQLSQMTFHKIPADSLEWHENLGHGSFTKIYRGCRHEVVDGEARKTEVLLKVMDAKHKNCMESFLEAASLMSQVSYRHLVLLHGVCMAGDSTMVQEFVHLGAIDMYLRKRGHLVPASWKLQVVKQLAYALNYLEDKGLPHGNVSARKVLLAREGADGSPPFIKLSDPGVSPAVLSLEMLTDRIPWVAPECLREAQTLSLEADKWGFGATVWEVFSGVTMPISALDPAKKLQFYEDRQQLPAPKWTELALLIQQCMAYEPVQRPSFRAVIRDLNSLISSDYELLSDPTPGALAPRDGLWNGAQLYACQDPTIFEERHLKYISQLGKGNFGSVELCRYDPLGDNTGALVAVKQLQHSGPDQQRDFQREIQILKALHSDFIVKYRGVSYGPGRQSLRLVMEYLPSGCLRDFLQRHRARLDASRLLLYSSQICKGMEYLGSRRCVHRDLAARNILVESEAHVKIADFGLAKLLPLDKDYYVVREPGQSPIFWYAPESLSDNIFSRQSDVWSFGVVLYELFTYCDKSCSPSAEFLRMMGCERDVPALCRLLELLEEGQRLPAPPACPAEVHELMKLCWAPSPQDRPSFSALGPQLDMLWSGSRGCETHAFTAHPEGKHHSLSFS

[2] = molecular target: Serine/threonine-protein kinase mTOR (Homo sapiens) (UniProt P42345)
[3] = molecular target: T2, Serine/threonine-protein kinase Chk1 (Homo sapiens) (UniProt O14757)
T2 sequence (whole entry): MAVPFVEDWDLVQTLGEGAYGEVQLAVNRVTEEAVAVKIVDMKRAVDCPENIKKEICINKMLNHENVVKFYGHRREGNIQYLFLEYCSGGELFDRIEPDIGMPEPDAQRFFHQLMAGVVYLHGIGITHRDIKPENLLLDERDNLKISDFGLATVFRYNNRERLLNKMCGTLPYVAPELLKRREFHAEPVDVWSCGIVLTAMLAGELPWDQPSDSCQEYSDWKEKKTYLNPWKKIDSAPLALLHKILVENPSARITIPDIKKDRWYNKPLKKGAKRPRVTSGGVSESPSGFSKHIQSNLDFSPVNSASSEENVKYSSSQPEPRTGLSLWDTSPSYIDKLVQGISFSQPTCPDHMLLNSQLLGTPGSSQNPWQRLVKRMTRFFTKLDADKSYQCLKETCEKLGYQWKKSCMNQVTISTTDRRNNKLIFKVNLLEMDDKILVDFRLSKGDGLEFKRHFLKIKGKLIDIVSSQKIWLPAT

[4] = molecular target: Ribosomal protein S6 kinase beta-1 (Homo sapiens) (UniProt P23443)
[5] = molecular target: RAC-alpha serine/threonine-protein kinase (Homo sapiens) (UniProt P31749)
[6] = molecular target: Mitogen-activated protein kinase 14 (Homo sapiens) (UniProt Q16539)
[7] = molecular target: Tyrosine-protein kinase BTK (Homo sapiens) (UniProt Q06187)
[8] = molecular target: D(4) dopamine receptor (Homo sapiens) (UniProt P21917)
D(4) dopamine receptor (Homo sapiens), sequence (P21917 whole entry): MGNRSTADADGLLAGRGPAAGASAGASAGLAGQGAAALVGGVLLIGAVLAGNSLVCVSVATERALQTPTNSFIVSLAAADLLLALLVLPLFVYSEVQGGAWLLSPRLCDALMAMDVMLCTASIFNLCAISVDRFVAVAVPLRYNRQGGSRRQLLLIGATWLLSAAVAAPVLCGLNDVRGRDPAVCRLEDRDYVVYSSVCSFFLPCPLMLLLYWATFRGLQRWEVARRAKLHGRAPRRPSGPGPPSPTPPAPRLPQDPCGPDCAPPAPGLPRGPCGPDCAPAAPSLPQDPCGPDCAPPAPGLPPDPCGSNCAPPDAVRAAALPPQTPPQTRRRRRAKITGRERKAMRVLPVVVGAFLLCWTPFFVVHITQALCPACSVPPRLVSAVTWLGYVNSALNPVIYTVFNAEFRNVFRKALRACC

Tyrosine-protein kinase BTK (Homo sapiens), sequence (Q06187 whole entry): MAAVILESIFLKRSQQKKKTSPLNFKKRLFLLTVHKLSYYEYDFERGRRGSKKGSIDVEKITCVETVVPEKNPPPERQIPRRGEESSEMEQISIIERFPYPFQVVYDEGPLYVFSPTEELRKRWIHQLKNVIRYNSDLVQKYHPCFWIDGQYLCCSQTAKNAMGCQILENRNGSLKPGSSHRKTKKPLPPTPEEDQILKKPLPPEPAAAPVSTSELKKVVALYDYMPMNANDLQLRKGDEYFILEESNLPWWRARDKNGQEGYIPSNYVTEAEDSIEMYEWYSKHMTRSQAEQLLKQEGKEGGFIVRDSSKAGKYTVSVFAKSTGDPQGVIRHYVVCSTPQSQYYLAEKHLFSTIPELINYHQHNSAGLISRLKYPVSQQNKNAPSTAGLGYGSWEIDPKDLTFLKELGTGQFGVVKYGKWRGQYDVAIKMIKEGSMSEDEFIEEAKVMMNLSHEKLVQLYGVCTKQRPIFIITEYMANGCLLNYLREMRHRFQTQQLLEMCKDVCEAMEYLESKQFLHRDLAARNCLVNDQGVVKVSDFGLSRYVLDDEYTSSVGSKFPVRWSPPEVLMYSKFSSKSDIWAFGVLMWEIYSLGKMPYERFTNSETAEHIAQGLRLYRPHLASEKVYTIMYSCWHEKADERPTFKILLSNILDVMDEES
Ribosomal protein S6 kinase beta-1 (Homo sapiens), sequence (P23443 whole entry, looked up): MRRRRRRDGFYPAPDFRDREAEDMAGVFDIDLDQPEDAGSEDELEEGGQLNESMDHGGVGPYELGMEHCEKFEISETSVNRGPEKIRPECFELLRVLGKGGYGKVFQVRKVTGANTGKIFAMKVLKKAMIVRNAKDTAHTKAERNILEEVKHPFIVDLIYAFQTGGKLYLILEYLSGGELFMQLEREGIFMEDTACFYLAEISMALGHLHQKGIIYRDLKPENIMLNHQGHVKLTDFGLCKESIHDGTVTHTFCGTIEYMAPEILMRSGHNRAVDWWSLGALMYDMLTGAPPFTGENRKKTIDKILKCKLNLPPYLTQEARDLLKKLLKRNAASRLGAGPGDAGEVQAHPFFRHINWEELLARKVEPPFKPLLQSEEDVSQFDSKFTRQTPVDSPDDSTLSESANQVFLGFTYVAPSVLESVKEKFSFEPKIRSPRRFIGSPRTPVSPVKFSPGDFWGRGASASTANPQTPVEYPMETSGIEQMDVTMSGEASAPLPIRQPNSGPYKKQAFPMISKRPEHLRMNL
RAC-alpha serine/threonine-protein kinase (Homo sapiens), sequence (P31749 whole entry): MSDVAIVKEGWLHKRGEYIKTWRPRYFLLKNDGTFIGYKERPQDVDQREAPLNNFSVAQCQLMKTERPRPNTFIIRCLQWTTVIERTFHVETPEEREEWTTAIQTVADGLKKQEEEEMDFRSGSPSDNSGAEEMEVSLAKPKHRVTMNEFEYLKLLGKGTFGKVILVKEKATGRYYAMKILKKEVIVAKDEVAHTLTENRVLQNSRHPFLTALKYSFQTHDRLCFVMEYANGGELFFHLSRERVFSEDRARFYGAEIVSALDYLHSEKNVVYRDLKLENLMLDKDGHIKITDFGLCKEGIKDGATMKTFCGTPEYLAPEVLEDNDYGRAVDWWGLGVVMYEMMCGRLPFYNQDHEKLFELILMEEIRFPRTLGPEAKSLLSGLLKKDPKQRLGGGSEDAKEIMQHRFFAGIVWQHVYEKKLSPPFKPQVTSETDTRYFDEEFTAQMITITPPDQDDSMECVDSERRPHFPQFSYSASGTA
Mitogen-activated protein kinase 14 (Homo sapiens), sequence (Q16539 whole entry): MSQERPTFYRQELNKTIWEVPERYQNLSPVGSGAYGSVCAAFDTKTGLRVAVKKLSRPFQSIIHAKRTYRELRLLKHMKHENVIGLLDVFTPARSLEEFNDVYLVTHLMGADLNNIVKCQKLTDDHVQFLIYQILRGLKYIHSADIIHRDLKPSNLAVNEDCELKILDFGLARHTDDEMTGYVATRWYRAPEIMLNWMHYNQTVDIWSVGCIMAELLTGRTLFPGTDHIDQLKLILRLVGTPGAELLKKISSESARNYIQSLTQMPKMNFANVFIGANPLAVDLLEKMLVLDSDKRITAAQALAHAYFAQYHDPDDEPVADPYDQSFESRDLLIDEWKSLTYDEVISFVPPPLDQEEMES

Structure (SMILES): CCOC(=O)c1cc2cc(-c3cc(C(=O)NCc4ccc(C(=O)O)cc4)nn3C)ccc2[nH]1 [BI 4394]
- residual activity [1]: 44%
- residual activity [2]: 78%
- residual activity [3]: 94%
- residual activity [4]: 89%
- residual activity [5]: 24%
- residual activity [6]: 6%
- residual activity [7]: 68%

Structure (SMILES): Cn1nc(C(=O)NCc2ccc(C(=O)O)cc2)cc1-c1ccc2[nH]ccc2c1 [BI 4395]
- inhibition [8]: -8.91%
